*1 amine or outer side, *2 acyl side, *3 side chain or, on linkers, in order; H or OH if unused. Where a SMILES comes first, the peptide text is derived from it. Bridges are numbered along the chain shown (N, C = ends). [ ]: non-standard residue; d: D form. X1 = O=C(O)/C=C/[C@H](N[*:1])C(=O)[*:2]
Assays:
[1] = molecular target: Sodium channel protein type 4 subunit alpha (Homo sapiens, UniProt P35499); assay: Inhibition of human Nav1.4 stably expressed in cells with train pulses to -20 mV at 0.1 Hz and holding potential of -95 mV by whole-cell Qube-automated patch clamp assay; assay type: cell-based
[2] = molecular target: Sodium channel protein type 8 subunit alpha (Homo sapiens, UniProt Q9UQD0); assay: Inhibition of human Nav1.6 stably expressed in cells with train pulses to -20 mV at 0.1 Hz and holding potential of -85 mV by whole-cell Qube-automated patch clamp assay; assay type: cell-based
[3] = molecular target: Sodium channel protein type 9 subunit alpha (Homo sapiens, UniProt Q15858); assay: Inhibition of human Nav1.7 stably expressed in cells with train pulses to -20 mV at 0.1 Hz and holding potential of -95 mV by Qube-automated patch clamp assay; assay type: cell-based
[4] = Inhibition of mast cell degranulation in Wistar Han rat peritoneal lavage mast cells assessed as inhibition histamine release by measuring lowest concentration at which histamine release observed measured after 30 mins; assay type: functional; conditions: 0.5 h

Chain of Sodium channel protein type 4 subunit alpha (P35499 whole entry): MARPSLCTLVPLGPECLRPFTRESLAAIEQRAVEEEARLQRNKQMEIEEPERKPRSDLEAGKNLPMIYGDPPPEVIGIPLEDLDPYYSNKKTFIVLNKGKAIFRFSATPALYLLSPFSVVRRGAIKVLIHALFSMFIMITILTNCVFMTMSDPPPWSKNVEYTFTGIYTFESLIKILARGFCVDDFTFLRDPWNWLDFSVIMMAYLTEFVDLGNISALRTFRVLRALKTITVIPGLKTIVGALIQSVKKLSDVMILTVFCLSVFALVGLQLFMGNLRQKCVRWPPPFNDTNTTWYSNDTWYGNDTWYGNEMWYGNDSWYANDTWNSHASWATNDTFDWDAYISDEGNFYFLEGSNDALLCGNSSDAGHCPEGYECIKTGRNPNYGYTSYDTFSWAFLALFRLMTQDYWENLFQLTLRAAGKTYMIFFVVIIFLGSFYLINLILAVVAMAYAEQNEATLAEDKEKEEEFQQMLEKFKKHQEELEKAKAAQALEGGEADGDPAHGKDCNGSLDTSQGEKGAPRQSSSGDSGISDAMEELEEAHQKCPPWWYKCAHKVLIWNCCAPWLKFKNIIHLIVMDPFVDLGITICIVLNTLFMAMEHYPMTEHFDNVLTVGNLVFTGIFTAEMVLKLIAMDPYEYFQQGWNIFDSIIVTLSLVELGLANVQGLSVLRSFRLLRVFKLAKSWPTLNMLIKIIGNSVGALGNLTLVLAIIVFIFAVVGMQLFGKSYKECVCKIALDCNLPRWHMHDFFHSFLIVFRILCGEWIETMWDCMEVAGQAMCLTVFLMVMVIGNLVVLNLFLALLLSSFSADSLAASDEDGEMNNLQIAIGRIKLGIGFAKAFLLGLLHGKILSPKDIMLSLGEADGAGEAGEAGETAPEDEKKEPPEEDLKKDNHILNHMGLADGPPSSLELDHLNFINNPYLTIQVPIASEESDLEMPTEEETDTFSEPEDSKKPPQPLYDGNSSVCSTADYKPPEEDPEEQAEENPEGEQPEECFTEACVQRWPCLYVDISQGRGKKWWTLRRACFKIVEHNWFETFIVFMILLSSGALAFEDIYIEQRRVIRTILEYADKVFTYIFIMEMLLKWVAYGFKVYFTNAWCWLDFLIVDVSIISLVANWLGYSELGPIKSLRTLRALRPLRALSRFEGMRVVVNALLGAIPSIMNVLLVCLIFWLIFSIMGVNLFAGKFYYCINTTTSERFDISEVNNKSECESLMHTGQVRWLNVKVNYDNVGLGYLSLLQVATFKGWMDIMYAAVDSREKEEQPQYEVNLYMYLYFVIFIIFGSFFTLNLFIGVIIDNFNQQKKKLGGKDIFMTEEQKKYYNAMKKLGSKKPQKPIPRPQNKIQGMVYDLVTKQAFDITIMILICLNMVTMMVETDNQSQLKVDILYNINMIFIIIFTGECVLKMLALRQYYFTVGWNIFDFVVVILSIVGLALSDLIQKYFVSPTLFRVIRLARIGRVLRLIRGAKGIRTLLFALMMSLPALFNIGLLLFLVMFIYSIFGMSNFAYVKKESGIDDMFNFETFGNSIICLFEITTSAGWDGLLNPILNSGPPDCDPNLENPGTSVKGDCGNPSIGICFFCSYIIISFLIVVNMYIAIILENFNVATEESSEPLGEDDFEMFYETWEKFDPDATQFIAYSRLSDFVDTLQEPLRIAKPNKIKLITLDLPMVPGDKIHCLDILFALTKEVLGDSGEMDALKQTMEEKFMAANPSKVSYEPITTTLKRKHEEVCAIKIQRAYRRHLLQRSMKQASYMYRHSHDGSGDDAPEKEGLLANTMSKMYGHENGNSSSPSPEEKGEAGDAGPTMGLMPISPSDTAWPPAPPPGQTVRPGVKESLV
Chain of Sodium channel protein type 8 subunit alpha (Q9UQD0 whole entry): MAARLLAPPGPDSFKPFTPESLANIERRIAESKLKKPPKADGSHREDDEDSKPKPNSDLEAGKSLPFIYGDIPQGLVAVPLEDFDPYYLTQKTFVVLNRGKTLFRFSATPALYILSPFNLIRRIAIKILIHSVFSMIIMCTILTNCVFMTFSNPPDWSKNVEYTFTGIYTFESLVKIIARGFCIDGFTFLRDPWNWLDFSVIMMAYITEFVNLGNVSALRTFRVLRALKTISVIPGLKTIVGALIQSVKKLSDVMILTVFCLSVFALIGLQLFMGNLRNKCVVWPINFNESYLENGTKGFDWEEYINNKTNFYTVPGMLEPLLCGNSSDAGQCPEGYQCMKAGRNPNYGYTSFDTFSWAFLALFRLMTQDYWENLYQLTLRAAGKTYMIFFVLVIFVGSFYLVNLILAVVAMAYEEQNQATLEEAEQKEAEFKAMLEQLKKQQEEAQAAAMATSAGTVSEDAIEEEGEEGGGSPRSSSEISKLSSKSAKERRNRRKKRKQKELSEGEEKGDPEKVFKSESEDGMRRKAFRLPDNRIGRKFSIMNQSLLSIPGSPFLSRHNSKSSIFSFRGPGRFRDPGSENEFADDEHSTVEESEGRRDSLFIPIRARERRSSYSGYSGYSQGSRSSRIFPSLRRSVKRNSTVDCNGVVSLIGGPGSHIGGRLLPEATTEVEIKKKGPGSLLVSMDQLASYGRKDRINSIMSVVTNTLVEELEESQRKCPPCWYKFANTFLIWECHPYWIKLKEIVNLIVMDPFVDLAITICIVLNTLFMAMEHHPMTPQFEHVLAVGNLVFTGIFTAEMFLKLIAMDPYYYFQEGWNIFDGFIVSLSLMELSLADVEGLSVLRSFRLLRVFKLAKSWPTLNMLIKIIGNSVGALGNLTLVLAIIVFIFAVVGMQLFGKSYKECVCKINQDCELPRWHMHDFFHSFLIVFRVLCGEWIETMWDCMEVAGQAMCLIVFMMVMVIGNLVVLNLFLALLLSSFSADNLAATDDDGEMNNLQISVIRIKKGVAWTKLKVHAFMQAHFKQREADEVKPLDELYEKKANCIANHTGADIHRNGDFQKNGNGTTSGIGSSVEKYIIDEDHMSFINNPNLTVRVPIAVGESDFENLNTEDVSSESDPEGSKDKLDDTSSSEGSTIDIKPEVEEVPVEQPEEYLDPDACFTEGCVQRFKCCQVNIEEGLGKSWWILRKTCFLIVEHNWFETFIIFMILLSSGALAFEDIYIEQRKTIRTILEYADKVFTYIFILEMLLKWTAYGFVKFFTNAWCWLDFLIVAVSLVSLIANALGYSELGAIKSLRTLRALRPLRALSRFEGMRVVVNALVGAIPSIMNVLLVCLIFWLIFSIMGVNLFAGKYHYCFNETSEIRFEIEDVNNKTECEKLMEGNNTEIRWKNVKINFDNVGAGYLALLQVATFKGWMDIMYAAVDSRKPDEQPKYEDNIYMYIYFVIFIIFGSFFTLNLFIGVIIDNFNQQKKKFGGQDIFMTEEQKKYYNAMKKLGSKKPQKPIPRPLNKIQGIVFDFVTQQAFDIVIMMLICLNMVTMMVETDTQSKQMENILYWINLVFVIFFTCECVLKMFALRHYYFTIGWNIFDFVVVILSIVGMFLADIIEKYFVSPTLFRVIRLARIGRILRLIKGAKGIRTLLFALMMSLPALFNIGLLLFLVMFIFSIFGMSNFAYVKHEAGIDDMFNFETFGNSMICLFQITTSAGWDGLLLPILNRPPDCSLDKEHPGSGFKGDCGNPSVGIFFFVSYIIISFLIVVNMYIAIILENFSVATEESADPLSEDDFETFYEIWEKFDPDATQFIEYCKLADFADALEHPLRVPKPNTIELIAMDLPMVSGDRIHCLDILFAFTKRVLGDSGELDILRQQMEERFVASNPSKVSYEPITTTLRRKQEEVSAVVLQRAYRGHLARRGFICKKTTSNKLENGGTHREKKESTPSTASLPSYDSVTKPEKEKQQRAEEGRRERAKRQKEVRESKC

SMILES | IC50 [1] | IC50 [2] | IC50 [3] | LED [4]
CC(=O)N[C@H]1CSSC[C@@H]2NC(=O)[C@@H]3CSSC[C@@H](C(=O)N[C@@H](CCCCN)C(=O)N[C@@H](CCCCN)C(=O)N[C@@H](CCCCN)C(=O)N[C@@H](CC(C)C)C(=O)N[C@@H](Cc4c[nH]c5ccccc45)C(N)=O)NC(=O)[C@H](Cc4c[nH]c5ccccc45)NC(=O)[C@H](CC(C)C)NC(=O)[C@H](CCCCN)NC(=O)[C@H](CSSC[C@H](NC(=O)[C@@H]4CCCN4C(=O)[C@H](CCCCN)NC(=O)[C@H](CC(C)C)NC(=O)[C@H](Cc4ccccc4)NC(=O)[C@H](CCC(=O)O)NC(=O)[C@H](CCC(N)=O)NC1=O)C(=O)N[C@@H](CC(=O)O)C(=O)N[C@@H](CCC(=O)O)C(=O)N[C@@H](CCC(=O)O)C(=O)N[C@@H](CCCNC(=N)N)C(=O)N[C@@H](CCCCN)C(=O)N3)NC(=O)[C@H](C(C)C)NC(=O)[C@H](CC(C)C)NC(=O)CNC(=O)[C@H](CCC(=O)O)NC2=O (Ac-CQEFLKPCDEERKCCEGLVCKLWCKKKLW-NH2; disulfide 1-15, 8-20, 14-24) | > 17 µM | > 17 µM | 0.225 µM | 10 µM
CC(=O)N[C@H]1CSSC[C@@H]2NC(=O)[C@@H]3CSSC[C@@H](C(=O)N[C@@H](CCCCN)C(=O)N[C@@H](CCCCN)C(=O)N[C@@H](CCCCN)C(=O)N[C@@H](CC(C)C)C(=O)N[C@@H](Cc4c[nH]c5ccccc45)C(N)=O)NC(=O)[C@H](Cc4c[nH]c5ccccc45)NC(=O)[C@H](CC(C)C)NC(=O)[C@H](C(C)C)NC(=O)[C@H](CSSC[C@H](NC(=O)[C@@H]4CCCN4C(=O)[C@H](CCCCN)NC(=O)[C@H](CC(C)C)NC(=O)[C@H](Cc4ccccc4)NC(=O)[C@H](CCC(=O)O)NC(=O)[C@H](CCC(N)=O)NC1=O)C(=O)N[C@@H](CC(=O)O)C(=O)N[C@@H](CCCCN)C(=O)N[C@@H](CCC(=O)O)C(=O)N[C@@H](CCCNC(=N)N)C(=O)N[C@@H](CCCCN)C(=O)N3)NC(=O)[C@H](CCC(=O)O)NC(=O)[C@H](CC(C)C)NC(=O)CNC(=O)[C@H](CCC(=O)O)NC2=O (Ac-CQEFLKPCDKERKCCEGLECVLWCKKKLW-NH2; disulfide 1-15, 8-20, 14-24) | > 17 µM | > 17 µM | 0.253 µM | 10 µM
CC(=O)N[C@H]1CSSC[C@@H]2NC(=O)[C@@H]3CSSC[C@@H](C(=O)N[C@@H](CCCCN)C(=O)N[C@@H](CCCCN)C(=O)N[C@@H](CCCCN)C(=O)N[C@@H](CC(C)C)C(=O)N[C@@H](Cc4c[nH]c5ccccc45)C(N)=O)NC(=O)[C@H](Cc4c[nH]c5ccccc45)NC(=O)[C@H](CC(C)C)NC(=O)[C@H](CCCCN)NC(=O)[C@H](CSSC[C@H](NC(=O)[C@@H]4CCCN4C(=O)[C@H](CCCCN)NC(=O)[C@H](CC(C)C)NC(=O)[C@H](Cc4ccccc4)NC(=O)[C@H](CCC(=O)O)NC(=O)[C@H](CCC(N)=O)NC1=O)C(=O)N[C@@H](CC(=O)O)C(=O)N[C@@H](CO)C(=O)N[C@@H](CCC(=O)O)C(=O)N[C@@H](CCCNC(=N)N)C(=O)N[C@@H](CCCCN)C(=O)N3)NC(=O)[C@H](CCC(=O)O)NC(=O)[C@H](CC(C)C)NC(=O)CNC(=O)[C@H](CCC(=O)O)NC2=O (Ac-CQEFLKPCDSERKCCEGLECKLWCKKKLW-NH2; disulfide 1-15, 8-20, 14-24) | > 17 µM | > 17 µM | 0.113 µM | 3.3 µM
CC(=O)N[C@H]1CSSC[C@@H]2NC(=O)[C@@H]3CSSC[C@@H](C(=O)N[C@@H](CCCCN)C(=O)N[C@@H](CCCCN)C(=O)N[C@@H](CCCCN)C(=O)N[C@@H](CC(C)C)C(=O)N[C@@H](Cc4c[nH]c5ccccc45)C(N)=O)NC(=O)[C@H](Cc4c[nH]c5ccccc45)NC(=O)[C@H](CC(C)C)NC(=O)[C@H](CCCNC(=N)N)NC(=O)[C@H](CSSC[C@H](NC(=O)[C@@H]4CCCN4C(=O)[C@H](CCCCN)NC(=O)[C@H](CC(C)C)NC(=O)[C@H](Cc4ccccc4)NC(=O)[C@H](CCC(=O)O)NC(=O)[C@H](CCC(N)=O)NC1=O)C(=O)N[C@@H](CC(=O)O)C(=O)N[C@@H](CO)C(=O)N[C@@H](CCC(=O)O)C(=O)N[C@@H](CCCNC(=N)N)C(=O)N[C@@H](CCCCN)C(=O)N3)NC(=O)[C@H](CCC(=O)O)NC(=O)[C@H](CC(C)C)NC(=O)CNC(=O)[C@H](CCC(=O)O)NC2=O (Ac-CQEFLKPCDSERKCCEGLECRLWCKKKLW-NH2; disulfide 1-15, 8-20, 14-24) | > 17 µM | > 17 µM | 0.091 µM | 3.3 µM
CC(=O)N[C@H]1CSSC[C@@H]2NC(=O)[C@@H]3CSSC[C@@H](C(=O)N[C@@H](CCCCN)C(=O)N[C@@H](CCCCN)C(=O)N[C@@H](CCCCN)C(=O)N[C@@H](CC(C)C)C(=O)N[C@@H](Cc4c[nH]c5ccccc45)C(N)=O)NC(=O)[C@H](Cc4c[nH]c5ccccc45)NC(=O)[C@H](CC(C)C)NC(=O)[C@H](CCCNC(=N)N)NC(=O)[C@H](CSSC[C@H](NC(=O)[C@@H]4CCCN4C(=O)[C@H](CCCCN)NC(=O)[C@H](CC(C)C)NC(=O)[C@H](Cc4ccccc4)NC(=O)[C@H](CCC(=O)O)NC(=O)[C@H](CCC(N)=O)NC1=O)C(=O)N[C@@H](CC(=O)O)C(=O)N[C@@H](CO)C(=O)N[C@@H](CCC(=O)O)C(=O)N[C@@H](CCCNC(=N)N)C(=O)N[C@@H](CCCCN)C(=O)N3)NC(=O)[C@H](C(C)C)NC(=O)[C@H](CC(C)C)NC(=O)CNC(=O)[C@H](CCC(=O)O)NC2=O (Ac-CQEFLKPCDSERKCCEGLVCRLWCKKKLW-NH2; disulfide 1-15, 8-20, 14-24) | 4.14 µM | 4.83 µM | 0.027 µM | 10 µM
CC(=O)N[C@H]1CSSC[C@@H]2NC(=O)[C@@H]3CSSC[C@@H](C(=O)N[C@@H](CCCCN)C(=O)N[C@@H](CCCCN)C(=O)N[C@@H](CCCCN)C(=O)N[C@@H](CC(C)C)C(=O)N[C@@H](Cc4c[nH]c5ccccc45)C(N)=O)NC(=O)[C@H](Cc4c[nH]c5ccccc45)NC(=O)[C@H](CC(C)C)NC(=O)[C@H](CCCCN)NC(=O)[C@H](CSSC[C@H](NC(=O)[C@@H]4CCCN4C(=O)[C@H](C)NC(=O)[C@H](CC(C)C)NC(=O)[C@H](Cc4ccccc4)NC(=O)[C@H](CCCCN)NC(=O)[C@H](CCC(N)=O)NC1=O)C(=O)N[C@@H](CC(=O)O)C(=O)N[C@@H](CCC(=O)O)C(=O)N[C@@H](CCC(=O)O)C(=O)N[C@@H](CCCNC(=N)N)C(=O)N[C@@H](CCCCN)C(=O)N3)NC(=O)[C@H](C(C)C)NC(=O)[C@H](CC(C)C)NC(=O)CNC(=O)[C@H](CCC(=O)O)NC2=O (Ac-CQKFLAPCDEERKCCEGLVCKLWCKKKLW-NH2; disulfide 1-15, 8-20, 14-24) | 15.2 µM | 10.3 µM | 0.074 µM | 3.3 µM
CC(=O)N[C@H]1CSSC[C@@H]2NC(=O)[C@@H]3CSSC[C@@H](C(=O)N[C@@H](CCCCN)C(=O)N[C@@H](CCCCN)C(=O)N[C@@H](CCCCN)C(=O)N[C@@H](CC(C)C)C(=O)N[C@@H](Cc4c[nH]c5ccccc45)C(N)=O)NC(=O)[C@H](Cc4c[nH]c5ccccc45)NC(=O)[C@H](CC(C)C)NC(=O)[C@H](C(C)C)NC(=O)[C@H](CSSC[C@H](NC(=O)[C@@H]4CCCN4C(=O)[C@H](C)NC(=O)[C@H](CC(C)C)NC(=O)[C@H](Cc4ccccc4)NC(=O)[C@H](CCCCN)NC(=O)[C@H](CCC(N)=O)NC1=O)C(=O)N[C@@H](CC(=O)O)C(=O)N[C@@H](CCCCN)C(=O)N[C@@H](/C=C/C(=O)O)C(=O)N[C@@H](CCCNC(=N)N)C(=O)N[C@@H](CCCCN)C(=O)N3)NC(=O)[C@H](CCC(=O)O)NC(=O)[C@H](CC(C)C)NC(=O)CNC(=O)[C@H](CCC(=O)O)NC2=O (Ac-CQKFLAPCDK[X1]RKCCEGLECVLWCKKKLW-NH2; disulfide 1-15, 8-20, 14-24) | > 17 µM | > 17 µM | 0.099 µM | 33 µM
CC(=O)N[C@H]1CSSC[C@@H]2NC(=O)[C@@H]3CSSC[C@@H](C(=O)N[C@@H](CCCCN)C(=O)N[C@@H](CCCCN)C(=O)N[C@@H](CCCCN)C(=O)N[C@@H](CC(C)C)C(=O)N[C@@H](Cc4c[nH]c5ccccc45)C(N)=O)NC(=O)[C@H](Cc4c[nH]c5ccccc45)NC(=O)[C@H](CC(C)C)NC(=O)[C@H](CCCCN)NC(=O)[C@H](CSSC[C@H](NC(=O)[C@@H]4CCCN4C(=O)[C@H](C)NC(=O)[C@H](CC(C)C)NC(=O)[C@H](Cc4ccccc4)NC(=O)[C@H](CCCCN)NC(=O)[C@H](CCC(N)=O)NC1=O)C(=O)N[C@@H](CC(=O)O)C(=O)N[C@@H](CO)C(=O)N[C@@H](CCC(=O)O)C(=O)N[C@@H](CCCNC(=N)N)C(=O)N[C@@H](CCCCN)C(=O)N3)NC(=O)[C@H](CCC(=O)O)NC(=O)[C@H](CC(C)C)NC(=O)CNC(=O)[C@H](CCC(=O)O)NC2=O (Ac-CQKFLAPCDSERKCCEGLECKLWCKKKLW-NH2; disulfide 1-15, 8-20, 14-24) | > 17 µM | > 17 µM | 0.063 µM | 10 µM
CC(=O)N[C@H]1CSSC[C@@H]2NC(=O)[C@@H]3CSSC[C@@H](C(=O)N[C@@H](CCCCN)C(=O)N[C@@H](CCCCN)C(=O)N[C@@H](CCCCN)C(=O)N[C@@H](CC(C)C)C(=O)N[C@@H](Cc4c[nH]c5ccccc45)C(N)=O)NC(=O)[C@H](Cc4c[nH]c5ccccc45)NC(=O)[C@H](CC(C)C)NC(=O)[C@H](CCCNC(=N)N)NC(=O)[C@H](CSSC[C@H](NC(=O)[C@@H]4CCCN4C(=O)[C@H](C)NC(=O)[C@H](CC(C)C)NC(=O)[C@H](Cc4ccccc4)NC(=O)[C@H](CCCCN)NC(=O)[C@H](CCC(N)=O)NC1=O)C(=O)N[C@@H](CC(=O)O)C(=O)N[C@@H](CO)C(=O)N[C@@H](CCC(=O)O)C(=O)N[C@@H](CCCNC(=N)N)C(=O)N[C@@H](CCCCN)C(=O)N3)NC(=O)[C@H](CCC(=O)O)NC(=O)[C@H](CC(C)C)NC(=O)CNC(=O)[C@H](CCC(=O)O)NC2=O (Ac-CQKFLAPCDSERKCCEGLECRLWCKKKLW-NH2; disulfide 1-15, 8-20, 14-24) | > 17 µM | > 17 µM | 0.042 µM | 3.3 µM

Source: ChEMBL document CHEMBL5038633 (J Med Chem, 2022)
